Three molecules from paper PMC8238948, “Potent inhibitors of toxic alpha-synuclein identified via cellular time-resolved FRET biosensors” (NPJ Parkinson's Disease, 2021) can be followed below.

For assay [1], the target named is T1, αSN (15 μM monomeric αSN doped with 5% αSN PFF seeds) (Homo sapiens, UniProt P37840).
T1 construct: made in house; host or cells: Escherichia coli BL21(DE3), T7-7 plasmid
As to the kind of experiment: Seeded Thioflavin-T aggregation assay. It is filed as biochemical. To be noted: 15 μM αSN monomer + 5% PFF; for IC50: 37 °C, max ThT intensity. On the procedure:
Figure 11 and Supplementary Fig. 23 present results from a dose-response-seeded aggregation assay. Vehicle, control, and hit compounds were incubated with 15 µM αSN(m), doped with 5% freshly sonicated αSN PFF in PBS under mild agitation (Supplementary Fig. 23a). […] Titration of control and hit compounds were run in triplicate; representative traces of hit compounds are illustrated in Fig. 11a with a full summary of each titration detailed in Supplementary Fig. 23c–h. IC50 was determined for each compound by determining the max ThT intensity for each concentration (Fig. 11b).
Seeded ThT aggregation assay was performed using 15 μM monomeric αSN doped with 5% (0.75 μM sonicated αSN pre-formed fibril (PFF) seeds) in a 384-well plate under slow agitation (300 RPM) at 37 °C. a Control samples for the aggregation include PBS (black), αSN monomer (brown), 5% αSN PFF (red), and the 15 μM monomer+5% PFF mixture (orange). Dose-response curves were made with a titration of compounds. […] In contrast, RO and DEM both show potent effects relative to Baicalin and EGCG controls. BAY does have some response, but it lags behind other hit compounds. b Normalizing the initial peak in ThT data allows us to estimate an IC50 for each hit. […] Although there is a small trend with BAY, the data cannot be fit to resolve an IC50.
ThT (Sigma, product no. T3516) was dissolved in PBS buffer and was filtered through a 0.2-µm syringe filter to make a stock solution of 2.5 mM. Working ThT concentration was 20 µM. PFF seeds were produced via constant agitation of 1000 RPM at 37 °C (ThermoMixer-C, Eppendorf, Hauppauge, NY) of 500 µL of 350 µM αSN in PBS in a 2 mL tube for 5 days. PFFs were aliquoted and flash frozen and stored at −80 °C until further use. PFF seeds were rapidly thawed, diluted to 35 µM in PBS, and sonicated 120 pulses at 50% using a probe-tip sonicator following the established protocols. Master mix samples for each of the different ThT assays were prepared and dispensed in triplicate as 50 µL in 384-well flat, black-bottom polypropylene plates (PN 781209, Greiner Bio-One) and sealed with fluorescently transparent film. Conditions for non-seeded, seeded, and cell homogenate assays varied slightly.
Seeded ThT experiments were performed at a lower monomer concentration to preclude spontaneous αSN aggregation during the time course of the experiment. For both seeded and cell homogenate experiments, sample were prepared in PBS + 20 µM ThT with or without 15 µM αSN(m) +/− 5% PFF (0.75 µM). Additional control samples of 15 µM PFF and 0.75 µM PFF were also prepared. All empty wells were filled with PBS for a thermal sink and to help prevent evaporation. Assay plates were prepared as pre-cellular FRET dose response above. Dose response was done across 8 concentrations (10 nM to 50 µM). The assay was run at 37 °C with mild shaking (200 RPM) in a Cytation3 plate reader. The ThT fluorescence was monitored with excitation filter of 450 nm and emission filter of 490 nm. Readings were acquired every 20 min for a minimum of 24 h. Seeded ThT aggregation IC50 values were determined by first normalizing all ThT curves to the maximal signal at plateau for the αSN + 5% PFF + DMSO samples. The normalized fluorescence at each concentration was fit to the Hill equation to resolve an effective IC50 of seeded aggregation inhibition.

Assay [2] deals with T2, intra-protomeric αSN biosensor (GFP-αSN-RFP) in HEK293 cells (Homo sapiens, UniProt P37840).
T2 construct: In addition to full-length αSN fusion constructs, we observe both C-terminally and N-terminally truncated αSN species; expressed in transfected cells; host or cells: HEK293
As to the kind of experiment: FRET response on intra-protomeric αSN biosensor. In kind it is cell-based. Particulars: 10 µM. The protocol:
Hits were also evaluated with the intra-protomeric αSN and control, non-specific biosensors. […] The compounds RO, BAY, and DEM as well as the control EGCG each reduced FRET, indicating either reduction in oligomerization or expanded oligomer conformation. Tests of these compounds in two control biosensor systems (GFP/RFP at 1:8 and GFP-linker32-RFP; see Supplementary Fig. 13a, b, respectively) show no significant FRET change.
Fig. 7 FRET response to pilot HTS hits on intra-protomeric αSN biosensor. […] With both donor and acceptor XFP fused to one construct, this biosensor is sensitive to both oligomer formation as well as conformation. […] Experiments were performed with n = 3; *p < 0.05, **p < 0.01, ***p < 0.001, ns indicates no significant difference as determined by Student’s t test.

Assay [3] concerns differentiated SH-SY5Y cells treated with sonicated human αSN PFF. As to the kind of experiment: Differentiated SH-SY5Y cell model of αSN PFF pathology (pS129 immunoblot). In kind it is cell-based. To be noted: 1 μM compound, 200 nM human PFF, 48 h; for total pS129 signal (words): relative to DMSO. On the procedure: SH-SY5Y cells were differentiated using reduced serum (3%) media supplemented with 10 μM retinoic acid for 3 days and then changed to serum-free media supplemented with 10 ng/mL brain-derived neurotrophic factor for the remainder of the experiment. Stock αSN PFFs were diluted and sonicated as described previously. SH-SY5Y cultures were then treated with 200 nM PFF and PBS, DMSO, 1 μM drug compound (RO, BAY, or DEM), or 50 μM Baicalin. After 48 h, SH-SY5Y were washed with PBS and harvested in cold lysis buffer with protease and phosphatase inhibitors, as previously described. Approximately 15 μg of total protein was loaded onto a 4–20% Criterion TGX midi gel and probed using Syn1 (BD Biosciences, #610787; 1° 1:5000; 2° 1:10K) and pS^129 aSyn (abcam, ab59264; 1° 1:1000; 2° 1:5000) and a-tubulin (abcam, ab4074; 1° 1:1000; 2° 1:10K) page 19: Supplemental Figure 18. […] Differentiated SH-SY5Y cells were treated with PBS, vehicle (DMSO) or compounds with and without 200nM sonicated human αSN PFFs. […] These will be removed in subsequent densitometry analysis. (b) Replicates of PFF +/- compound treatment were ran for immunoblot analysis of pS129 immunoreactivity. (c) Densitometry analysis was performed using ImageLab from BioRad. Total pS129 signal (excluding the non- specific bands) was normalized to tubulin loading control. […] Quantification is normalized per lane to highlight change in the ratio of different species. Note, oligomers quantification is plotted relative to the right-y- axis. All statistical comparisons were to DMSO treatment using two-tailed t-test with * p<0.05; ** p<0.01; *** p<0.005.

“Also recorded” adds a separate entry of the source. Where a name gives a salt, the structure may show the parent alone.

With `COC(=O)C1=C(C)NC(C)=C([N+](=O)[O-])C1c1ccccc1C(F)(F)F` (racemic) [BAY, (±)-Bay K 8644], the “effect on seeded aggregation” value in assay [1] (titration up to 50 μM) was “cannot be fit”. In addition, the “change in intra-protomeric FRET” value in assay [2] was “reduced FRET”. In addition, in assay [3], the “HMW pS129 assemblies” value is “increase HMW assemblies”; the “LMW oligomer pS129 fraction” value is “not BAY, reduce oligomers”; the “monomeric pS129 fraction” value is reported as “significant reduction”; the “total pS129 signal (words)” value was “significant increase”. Moreover, in assay [3] (listed as Bay), the “total pS129 signal (words)” value is recorded as “increased pS129 signal”.

What is called IC50 is the concentration that inhibits the measured activity by half. With `Nc1ccc(-c2nc3ccc(-c4nc5ccc(N)cc5[nH]4)cc3[nH]2)cc1` [RO, Ro 90–7501], the 50% inhibitory concentration (IC50) in assay [1] amounted to 931 nM. Further, the “change in intra-protomeric FRET” value in assay [2] was “reduced FRET”. In addition, in assay [3], the “HMW pS129 assemblies” value is listed as “increase HMW assemblies”, the “LMW oligomer pS129 fraction” value is on record as “significantly reduced”, the “monomeric pS129 fraction” value is given as “significant reduction” and the “total pS129 signal (words)” value is given as “significant reduction; also recorded: significant decrease”.

As for `CN(C)[C@@H]1C(O)=C(C(N)=O)C(=O)[C@@]2(O)C(O)=C3C(=O)c4c(O)ccc(Cl)c4[C@@H](O)[C@H]3C[C@@H]12` [DEM, Demeclocycline HCl], in assay [1], the 50% inhibitory concentration (IC50) was 1000 nM. In addition, in assay [2], the “change in intra-protomeric FRET” value is listed as “reduced FRET”. Further, in assay [3], the “HMW pS129 assemblies” value is reported as “increase HMW assemblies”, the “LMW oligomer pS129 fraction” value is “significantly reduced”, the “monomeric pS129 fraction” value was “significant reduction” and the “total pS129 signal (words)” value is “non-significant change”.
